In patent publication US20240270762A1, “PENICILLIN-BINDING PROTEIN INHIBITORS” (priority 2021, published 2024):
pEC50: −log10 of the molar value. ≈ marks a conversion by molar mass, not a printed value.

Key:
[1] = tested on: N. gonorrhoeae WHO Z; assay: Liquid broth MIC in Fastidious broth; settings: Neisseria gonorrhoeae, read-out: Minimum Inhibitory Concentration (MIC), N. gonorrhoeae WHO Z
[2] = tested on: N. gonorrhoeae FA1090; assay: Liquid broth MIC in Fastidious broth; settings: Neisseria gonorrhoeae, FA1090, read-out: Minimum Inhibitory Concentration (MIC), N. gonorrhoeae FA 1090
[3] = tested on: P. aeruginosa ATCC 27853; assay: microbe, parasite or virus in culture; assay type: cell-based; settings: Pseudomonas aeruginosa, ATCC27853, read-out: MIC P. aeruginosa ATCC 27853
[4] = tested on: N. gonorrhoeae WHO K; assay: Liquid broth MIC in Fastidious broth; settings: Neisseria gonorrhoeae, read-out: Minimum Inhibitory Concentration (MIC), N. gonorrhoeae WHO K
[5] = tested on: N. gonorrhoeae WHO G; assay: Liquid broth MIC in Fastidious broth; settings: Neisseria gonorrhoeae, read-out: Minimum Inhibitory Concentration (MIC), N. gonorrhoeae WHO G
[6] = tested on: P. aeruginosa ATCC 35151; assay: microbe, parasite or virus in culture; assay type: cell-based; settings: Pseudomonas aeruginosa, ATCC35151, read-out: MIC P. aeruginosa ATCC 35151
[7] = tested on: K. pneumoniae UMM; assay: microbe, parasite or virus in culture; assay type: cell-based; settings: Klebsiella pneumoniae, read-out: MIC K. pneumoniae UMM
[8] = tested on: N. gonorrhoeae WHO L; assay: Liquid broth MIC in Fastidious broth; settings: Neisseria gonorrhoeae, read-out: Minimum Inhibitory Concentration (MIC), N. gonorrhoeae WHO L
[9] = tested on: N. gonorrhoeae MS11; assay: Liquid broth MIC in Fastidious broth; settings: Neisseria gonorrhoeae, MS11, read-out: Minimum Inhibitory Concentration (MIC), N. gonorrhoeae MS11
[10] = tested on: K. pneumoniae SI-117; assay: microbe, parasite or virus in culture; assay type: cell-based; settings: Klebsiella pneumoniae, SI117, read-out: MIC K. pneumoniae SI-117
[11] = tested on: E. coli D22; assay: microbe, parasite or virus in culture; assay type: cell-based; settings: Escherichia coli, D22, read-out: MIC E. coli D22
[12] = molecular target: T1, PBP2 from Neisseria gonorrhoeae (FA19) (Neisseria gonorrhoeae, UniProt P08149); assay: Bocillin-FL fluorescence polarization competition binding, N. gonorrhoeae PBP2; settings: fluorescence polarization competition binding assay using Bocillin-FL, read-out: N. gonorrhoeae PBP2 Potency
T1 construct: made in house
Procedure, shortened: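 Fluorescence polarization competition with 0.1 μM Bocillin-FL (fluorescent penicillin V) against 0.25 μM N. gonorrhoeae FA19 PBP2 in 50 mM Hepes pH 8.0, 300 mM NaCl, 10% glycerol. Boronic acid inhibitors were preincubated with PBP, then Bocillin-FL was added and FP read (490/520 nm) up to 60 min. EC50 is the concentration halving PBP-bound Bocillin-FL.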

[13] = tested on: E. coli AG100; assay: microbe, parasite or virus in culture; assay type: cell-based; settings: Escherichia coli, AG100, read-out: MIC E. coli AG100
[14] = tested on: E. coli 901C; assay: microbe, parasite or virus in culture; assay type: cell-based; settings: Escherichia coli, read-out: MIC E. coli 901C

T1 sequence (P08149 whole entry): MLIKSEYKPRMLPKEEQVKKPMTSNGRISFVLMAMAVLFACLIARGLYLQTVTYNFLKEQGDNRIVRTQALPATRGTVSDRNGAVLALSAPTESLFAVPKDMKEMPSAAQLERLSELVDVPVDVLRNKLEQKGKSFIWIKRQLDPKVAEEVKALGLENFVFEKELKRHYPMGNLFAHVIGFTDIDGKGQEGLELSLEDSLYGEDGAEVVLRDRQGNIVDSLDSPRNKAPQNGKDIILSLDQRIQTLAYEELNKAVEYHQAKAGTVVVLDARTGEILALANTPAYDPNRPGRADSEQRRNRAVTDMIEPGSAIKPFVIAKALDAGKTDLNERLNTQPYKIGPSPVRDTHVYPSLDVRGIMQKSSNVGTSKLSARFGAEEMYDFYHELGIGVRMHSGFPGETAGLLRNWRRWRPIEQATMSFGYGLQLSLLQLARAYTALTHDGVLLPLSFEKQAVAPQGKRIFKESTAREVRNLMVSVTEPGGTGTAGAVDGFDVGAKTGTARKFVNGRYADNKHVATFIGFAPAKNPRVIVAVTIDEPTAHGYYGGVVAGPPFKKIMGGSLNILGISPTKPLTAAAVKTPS

Structure (SMILES)	MIC [1]	MIC [2]	MIC [3]	MIC [4]	MIC [5]	MIC [6]	MIC [7]	MIC [8]	MIC [9]	MIC [10]	MIC [11]	pEC50 [12]	MIC [13]	MIC [14]
CS(=O)(=O)N1CCN(C(=O)NC(C(=O)N[C@H]2Cc3cccc(C(=O)O)c3OB2O)c2ccc(P(=O)(O)O)c(Cl)c2)C1=O (stereo partly drawn) [Example 11, (3R)-3-(2-(3-chloro-4-phosphonophenyl)-2-(3-(methylsulfonyl)-2-oxoimidazolidine-1-carboxamido)acetamido)-2-hydroxy-3,4-dihydro-2H-benzo[e][1,2]oxaborinine-8-carboxylic acid]	< 1 µg/mL	< 1 µg/mL	> 128 µg/mL	< 1 µg/mL	< 1 µg/mL	8 to 16 µg/mL (≈ 12.4 to 24.8 µM)	> 128 µg/mL	1 to 2 µg/mL (≈ 1.55 to 3.1 µM)	< 1 µg/mL	> 128 µg/mL	8 to 16 µg/mL (≈ 12.4 to 24.8 µM)	> 5.00	32 to 64 µg/mL (≈ 49.6 to 99.3 µM)	< 1 µg/mL
CS(=O)(=O)N1CCN(C(=O)NC(C(=O)N[C@H]2Cc3cccc(C(=O)O)c3OB2O)c2ccc(P(=O)(O)O)c(F)c2)C1=O (stereo partly drawn) [Example 12, (3R)-3-(2-(3-fluoro-4-phosphonophenyl)-2-(3-(methylsulfonyl)-2-oxoimidazolidine-1-carboxamido)acetamido)-2-hydroxy-3,4-dihydro-2H-benzo[e][1,2]oxaborinine-8-carboxylic acid]	< 1 µg/mL	< 1 µg/mL	> 128 µg/mL	< 1 µg/mL	< 1 µg/mL	8 to 16 µg/mL (≈ 12.7 to 25.5 µM)	> 128 µg/mL	< 1 µg/mL	< 1 µg/mL	> 128 µg/mL	2 to 4 µg/mL (≈ 3.18 to 6.37 µM)	> 5.00	8 to 16 µg/mL (≈ 12.7 to 25.5 µM)	< 1 µg/mL
NC(C(=O)N[C@H]1Cc2ccc(F)c(C(=O)O)c2OB1O)c1ccc(P(=O)(O)O)cc1 (stereo partly drawn) [Example 14, (3R)-3-(2-amino-2-(4-phosphonophenyl)acetamido)-7-fluoro-2-hydroxy-3,4-dihydro-2H-benzo[e][1,2]oxaborinine-8-carboxylic acid]	> 64 µg/mL	> 64 µg/mL	> 128 µg/mL	> 64 µg/mL	> 64 µg/mL	> 128 µg/mL	> 128 µg/mL	> 64 µg/mL	> 64 µg/mL	> 128 µg/mL	> 128 µg/mL	3.60 to 4.30	> 128 µg/mL	> 128 µg/mL
CS(=O)(=O)N1CCN(C(=O)N[C@@H](C(=O)N[C@H]2Cc3ccc(F)c(C(=O)O)c3OB2O)c2ccc(P(=O)(O)O)c(F)c2F)C1=O [Example 16, (R)-3-((R)-2-(2,3-difluoro-4-phosphonophenyl)-2-(3-(methylsulfonyl)-2-oxoimidazolidine-1-carboxamido)acetamido)-7-fluoro-2-hydroxy-3,4-dihydro-2H-benzo[e][1,2]oxaborinine-8-carboxylic acid]	< 1 µg/mL	< 1 µg/mL	> 128 µg/mL	< 1 µg/mL	< 1 µg/mL	2 to 4 µg/mL (≈ 3.01 to 6.02 µM)	> 128 µg/mL	< 1 µg/mL	< 1 µg/mL	> 128 µg/mL	8 to 16 µg/mL (≈ 12 to 24.1 µM)	> 5.00	> 128 µg/mL	< 1 µg/mL
CS(=O)(=O)N1CCN(C(=O)NC(C(=O)N[C@H]2Cc3cccc(C(=O)O)c3OB2O)c2ccc(P(=O)(O)O)c(O)c2)C1=O (stereo partly drawn) [Example 17, (3R)-2-hydroxy-3-(2-(3-hydroxy-4-phosphonophenyl)-2-(3-(methylsulfonyl)-2-oxoimidazolidine-1-carboxamido)acetamido)-3,4-dihydro-2H-benzo[e][1,2]oxaborinine-8-carboxylic acid]	< 1 µg/mL	< 1 µg/mL	32 to 64 µg/mL (≈ 51.1 to 102 µM)	< 1 µg/mL	< 1 µg/mL	< 1 µg/mL	32 to 64 µg/mL (≈ 51.1 to 102 µM)	< 1 µg/mL	< 1 µg/mL	> 128 µg/mL	2 to 4 µg/mL (≈ 3.19 to 6.39 µM)	> 5.00	8 to 16 µg/mL (≈ 12.8 to 25.5 µM)	< 1 µg/mL
CCN1CCN(C(=O)NC(C(=O)N[C@H]2Cc3cccc(C(=O)O)c3OB2O)c2ccc(CP(=O)(O)O)cc2)C(=O)C1=O (stereo partly drawn) [Example 20, (3R)-3-(2-(4-ethyl-2,3-dioxopiperazine-1-carboxamido)-2-(4-(phosphonomethyl)phenyl)acetamido)-2-hydroxy-3,4-dihydro-2H-benzo[e][1,2]oxaborinine-8-carboxylic acid]	< 1 µg/mL	< 1 µg/mL	> 128 µg/mL	1 to 2 µg/mL (≈ 1.66 to 3.32 µM)	< 1 µg/mL	< 1 µg/mL	32 to 64 µg/mL (≈ 53.1 to 106 µM)	1 to 2 µg/mL (≈ 1.66 to 3.32 µM)	< 1 µg/mL	> 128 µg/mL	2 to 4 µg/mL (≈ 3.32 to 6.64 µM)	> 5.00	8 to 16 µg/mL (≈ 13.3 to 26.6 µM)	< 1 µg/mL
CCN1CCN(C(=O)NC(C(=O)N[C@H]2Cc3cccc(C(=O)O)c3OB2O)c2ccc(P(=O)(O)O)c(O)c2)C(=O)C1=O (stereo partly drawn) [Example 21, (3R)-3-(2-(4-ethyl-2,3-dioxopiperazine-1-carboxamido)-2-(3-hydroxy-4-phosphonophenyl)acetamido)-2-hydroxy-3,4-dihydro-2H-benzo[e][1,2]oxaborinine-8-carboxylic acid]	< 1 µg/mL	< 1 µg/mL	8 to 16 µg/mL (≈ 13.2 to 26.5 µM)	< 1 µg/mL	< 1 µg/mL	< 1 µg/mL	8 to 16 µg/mL (≈ 13.2 to 26.5 µM)	< 1 µg/mL	< 1 µg/mL	> 128 µg/mL	2 to 4 µg/mL (≈ 3.31 to 6.62 µM)	> 5.00	8 to 16 µg/mL (≈ 13.2 to 26.5 µM)	< 1 µg/mL
CCN1CCN(C(=O)NC(C(=O)N[C@H]2Cc3cccc(C(=O)O)c3OB2O)c2cccc(CP(=O)(O)O)c2)C(=O)C1=O (stereo partly drawn) [Example 22, (3R)-3-(2-(4-ethyl-2,3-dioxopiperazine-1-carboxamido)-2-(3-(phosphonomethyl)phenyl)acetamido)-2-hydroxy-3,4-dihydro-2H-benzo[e][1,2]oxaborinine-8-carboxylic acid]	1 to 2 µg/mL (≈ 1.66 to 3.32 µM)	< 1 µg/mL	> 128 µg/mL	4 to 8 µg/mL (≈ 6.64 to 13.3 µM)	< 1 µg/mL	< 1 µg/mL	32 to 64 µg/mL (≈ 53.1 to 106 µM)	16 to 32 µg/mL (≈ 26.6 to 53.1 µM)	1 to 2 µg/mL (≈ 1.66 to 3.32 µM)	> 128 µg/mL	2 to 4 µg/mL (≈ 3.32 to 6.64 µM)	> 5.00	8 to 16 µg/mL (≈ 13.3 to 26.6 µM)	< 1 µg/mL
